Reference: patent US11478442B2, “Pharmaceutical compositions comprising DGLA and use of same” (DS Biopharma Limited, priority 2014, dated 2022)
Where two headings read alike, the source gives them in different places.

Key:
[1] = test system: spontaneous hypertensive rats; test: Anti-hypertension efficacy of DGLA and aspirin in spontaneous hypertensive rats with phenylephrine challenge; type: in vivo, rat; conditions: for effect on mean systemic arterial pressure (in words): aspirin-fed rats
Protocol: An in vivo investigation of anti-hypertension efficacy following co-administration of DGLA and aspirin in spontaneous hypertensive rats was conducted. This experiment investigated the efficacy of DGLA when co-administered chronically with aspirin to reduce the hypertensive response induced acutely by phenylephrine in spontaneous hypertensive rats. Spontaneously hypertensive adult male rats (250-300 g), bred by Charles River Laboratories, were used for this assay. The animals were identified upon arrival as per CCPA guidelines. The animals were pair-housed by group (low dose+ Aspirin, high dose+ Aspirin or Aspirin alone) for the duration of the oral gavage prior to surgery. All animal care and vivarium maintenance was recorded, with documents kept at the test facility.
The concentrations of DGLA to be tested (50 and 500 mg/kg) as well as the concentration of aspirin (10 mg/kg) were selected by the Sponsor based on information available at the time of design of this study. They were selected to cover a range of concentrations useful for the identification of the mechanism of action of the test article.
All solution preparations were documented on a Solution Contents Form, defining labelling information and all relevant information on reagents: batch number, storage conditions, contents, and preparation/expiry dates.
The test article was formulated using olive oil as the vehicle. This stock solution was then administered by oral gavage once per day for seven consecutive days. A low and a high dose (50 mg/kg and 500 mg/kg) were tested.
A 5 mg/ml stock solution of Aspirin was prepared by dissolving the appropriate amount of aspirin in 100% DMSO which was then diluted in water. The concentration of DMSO was less than 1%. The appropriate volume was administered by oral gavage to each animal once per day for seven consecutive days. The stock solution was stored at room temperature and was considered stable for the duration of the gavage.
The appropriate volume was administered to each animal by an intravenous injection at the end of the experiment on the surgery day. The stock solution was stored at 4° C. and was considered stable for the duration of the experiment.
Male spontaneous hypertensive rats weighing approximately 300 g arrived at the facility at least two days before beginning the oral gavage. Animals were assigned to one of three groups (low dose+ aspirin, high dose+ aspirin, and aspirin), and were pair-housed during the acclimation period. Each group (n=4) received the appropriate compound by oral gavage using a 16G feeding needle. The stock solution was administered once per day for seven consecutive days. On the seventh day of administration, the animals underwent surgery and hypertensive monitoring.
Rats were anesthetized with a 2.5-3.0% isoflurane-O2 mixture in an induction box. When the animals were removed from the induction box, they were connected onto a nose cone to maintain anesthesia during the tracheotomy. The animals were tracheotomised with an endotracheal tube (7 cm length from connector to the tip made with a PE205 tube from BD and a 16G needle) to facilitate spontaneous breathing, stabilize hemodynamics, and to keep the rat under anesthesia with an isoflurane-O2 mixture. Two catheters were inserted: one in the right femoral artery for systemic arterial pressure (SAP) measurement, and one in the right femoral vein for delivery of the hypertensor and positive control. ECG signals were acquired with ECG contacts placed in a Lead-1 configuration on the anaesthetized animal, and a pulse oxymeter was attached to the animal's hind paw to enable continuous monitoring of the general condition of the rat during the surgical. Following baseline measurements, three doses of phenylephrine (3, 10 and 20 μg/kg) were delivered by an IV bolus injection, leaving 5 minutes between doses. […] After the positive control, 10 μg/kg of phenylephrine was administered again.

[2] = in vivo
Protocol: In Part one of the study, plasma PK analysis of Dihomo-Gamma-Linolenic Acid (DGLA) and 15-Hydroxyeicosatrienoic acid (15-HETrE), in fasted subjects alone, was performed for Cohorts one to four up to 312 hours post dose on study Days 1 to 5, 8, 14, and the follow-up visit. In Part two, plasma PK analysis of DGLA was performed for Cohorts five and six up to 168 hours post dose on study Days 1, 2, 3, 5, and 8. Safety assessments were monitored throughout the study.
Analysis of plasma concentrations of DGLA (free and total) and free 15-HETrE were performed in blood samples obtained from the subjects.
Analysis of all plasma and skin blister fluid samples was performed using validated methods. Concentrations of free and total DGLA were measured in plasma and skin blister fluid by liquid chromatography with tandem mass spectrometry (LC/MS/MS); the quantitation range was 100 to 10,000 ng/mL for free DGLA and 5000 to 500,000 ng/mL for total DGLA. Plasma concentrations of free 15-HETrE were measured by LC/MS/MS with a quantitation range of 100 to 10,000 ng/mL.

[3] = Phase one study, food effect: single 1000 mg dose fasted vs fed, plasma pharmacokinetics of free and total DGLA; type: in vivo, human; conditions: for Tmax: human, plasma, oral, 1000 mg, read-out: total DGLA tmax, median
Protocol: The effect of food on the PK of an orally administered single dose of DS107G capsule in healthy subjects.
Subjects were randomly assigned in a 3:1 ratio of DG107G to placebo by block randomization. Single dose part one of the study comprised three cohorts of eight subjects each, with the addition of Cohort four based on evaluation of the safety data of Cohort three by the Safety Monitoring Committee (SMC). A single oral dose of DS107G or matching placebo was administered to fasted subjects in Cohorts one to three (500, 1000, and 2000 mg, respectively) in parallel; subjects in Cohort four were administered a dose of 4000 mg following completion of Cohort three. Subjects in Cohort two received 1000 mg or matching placebo in the fed state at 14 days after the first dose.
Food effect was evaluated in Cohort two at least 14 days after the first dose at which time a second single dose was administered. Subjects were administered a 1000-mg dose of study drug with 240 mL of water after a 10-hour fasting period and 30 minutes after starting consumption of a meal. Subjects then refrained from food intake for at least 4 hours after dosing. Food consumption was standardized for at least 12 hours after dosing using a standardized high-fat meal (800 to 1000 kcal with 500 to 600 kcal from fat and 250 kcal from carbohydrates). A typical standard test meal consisted of two eggs fried in butter, two strips of bacon, two slices of toast with butter, 120 mL of hash brown potatoes, and 240 mL of whole milk.
Subjects in Cohort two undergoing evaluation of the food effect on oral 1000 mg DGLA capsules were restricted from food consumption for at least 4 hours after dosing. Food consumption was standardized for at least 12 hours post dose using a standardized high-fat meal.

[4] = Phase one study, multiple dose (28 days): plasma pharmacokinetics of free DGLA incl. steady state; type: in vivo, human
Protocol: (§1) A single-center, double-blind, randomized, placebo-controlled, two part Phase one study was performed in healthy male and female subjects aged 18 to 45 years inclusive. The primary objective of this study was to assess the safety and plasma pharmacokinetics (PK) of orally administered single doses and orally administered multiple doses of DS107G capsules (once daily for 28 days) in healthy subjects.
(§2) Multiple dose part two of the study comprised two cohorts (Cohorts five and six) of eight subjects each, who were administered multiple doses of study drug in the fasted state for 28 days. Subjects in Cohorts five and six received DS107G 2000 or 4000 mg, respectively, or matching placebo once daily for 28 days. Cohort six was started after Cohort five safety data were evaluated by the SMC. No interim analysis was planned.
(§3) Safety assessments were monitored throughout the study.
(§4) In Part two of the study (Cohorts five and six), subjects were administered study drug (500-mg DS107G capsules or matching placebo capsules) once daily in the fasted state for 28 days. Subjects in Cohort five received study drug first and, if they tolerated the 2000-mg daily dose for the first 14 days, subjects in Cohort six were started on the 4000-mg daily dose for 28 days.
(§5) PK parameter was computed after correcting the dosed DGLA concentrations with baseline DGLA concentrations.

[5] = Phase one study, multiple dose (28 days): plasma pharmacokinetics of total DGLA incl. steady state; type: in vivo, human; conditions: for half-life: 2000 mg, 2000 mg dose cohort, read-out: Median total DGLA elimination t½ (converted); for Peak Trough Fluctuation (PTF), mean (Table 24, total DGLA): steady-state, Day 28 (0-24 hours)
Protocol: as §1, §2, §3, §4, §5

[6] = Phase one study, multiple dose: free and total DGLA in skin blister fluid; type: in vivo, human
Text: The PK of DGLA in human skin following multiple doses of DS107G capsule given once daily for 28 days to healthy subjects.

[7] = DGLA 50 mg/kg gavage 7 days, before intravenous phenylephrine
[8] = concentrations from Days 1, 8, 14 and 28

CC(=O)Oc1ccccc1C(=O)O [Aspirin, reference compound]
Mean Arterial Pressure, Average ([1]; Aspirin 10 mg/kg/day gavage 7 days, Baseline): 136.8 mm Hg

CCCCC[C@H](O)/C=C/C=C\C/C=C\CCCCCCC(=O)O [Batch 15-HETrE, 15-Hydroxyeicosatrienoic acid]
plasma free 15-HETrE concentration [2]: < 100 ng/m L

COc1ccccc1OCCNCC(O)COc1cccc2[nH]c3ccccc3c12 (stereo not shown) [Carvedilol, reference compound]
effect on mean systemic arterial pressure (in words) ([1]; carvedilol 0.1 mg/kg iv after phenylephrine): significant decrease | effect on blood pressure (in words) ([1]; carvedilol 0.1 mg/kg iv, DGLA + aspirin-fed animals): significant decrease in blood pressure

CCCCC/C=C\C/C=C\C/C=C\CCCCCCC(=O)O [DGLA, Dihomo gamma linolenic acid]
Diastol arterial pressure [1, 7]: 75 mm Hg | Systol arterial pressure [1, 7]: 120 mm Hg | Diastol arterial pressure ([1]; DGLA 500 mg/kg gavage 7 days, before intravenous phenylephrine): 80 mm Hg | effect on arterial pressure in spontaneously hypertensive rats (in words) ([1]; DGLA alone, 50 or 500 mg/kg gavage 7 days): successfully decreases the arterial pressure | free DGLA Cmax occurred sooner (median) under fasted than fed conditions [3]: 1 h | Tmax ([3]; fasted): 8 h | Tmax ([3]; fed): 15 h | free DGLA mean accumulation ratio (AR) for AUC ([4]; 2000 mg daily): ~3.3 | free DGLA mean accumulation ratio (AR) for Cmax ([4]; 2000 mg daily): ~2.8 | free DGLA mean accumulation ratio (AR) for AUC ([4]; 4000 mg daily): ~1.6 | free DGLA mean accumulation ratio (AR) for Cmax ([4]; 4000 mg daily): ~1.4 | day by which plasma concentrations reached steady-state ([4]; 2000 and 4000 mg daily, free and total DGLA): ~14 days | time after dosing at which mean concentrations of free DGLA peaked ([4]; Days 1 and 28, 2000 and 4000 mg daily): about 4 hours | half-life ([5]; both sexes, human, plasma, oral, Day 1, assessed over 24 hours): 34.4 h | half-life ([5]; both sexes, human, plasma, oral, Day 28, assessed over 24 hours): 44 h | half-life ([5]; both sexes, human, plasma, oral, Day 28, evaluated over 0 to 168 hours): 62.6 h | Tmax ([5]; both sexes, human, plasma, oral, with multiple doses, both dose cohorts, read-out: total DGLA Median T (tmax)): 8 to 10 h | Peak Trough Fluctuation (PTF), mean (Table 24, total DGLA) ([5]; first of both dose cohorts (2000 mg)): 62.5% | Peak Trough Fluctuation (PTF), mean (Table 24, total DGLA) ([5]; second of both dose cohorts (4000 mg)): 44.9% | Mean total DGLA concentrations in skin blister fluid, Day 28 vs Day 1 ([6]; 2000 mg daily): about 2.5 fold | Mean total DGLA concentrations in skin blister fluid, Day 28 vs Day 1 ([6]; 4000 mg daily): ~3 fold | change of mean free DGLA concentrations in skin blister fluid with a doubling in dose (in words) [6, 8]: approximately doubled | increase of mean total DGLA concentrations in skin blister fluid with a doubling in dose [6, 8]: about 1.4 fold

CNC[C@H](O)c1cccc(O)c1 [phenylephrine, reference compound]
effect on mean systemic arterial pressure (in words) ([1]; phenylephrine 3, 10, 20 μg/kg iv): increased mean systemic arterial pressure with increasing doses
